Tests used:
[1] = tested on: HBeAg in HepG2-NTCP cells; assay: microbe, parasite or virus in culture; format: cell-based, HBV
Procedure: (§1) On day 0, HepG2-NTCP cells were plated into 48-well plates (7.5×10^4 cells/well). On day 1, change to medium containing 2% DMSO.
(§2) On day 2, the cells were pretreated by adding compounds for 1 hour, and then HepG2-NTCP cells were infected by the addition of […] (compounds were added simultaneously). The test compound was diluted to three concentrations for single treatment, one concentration for combined treatment. Testing in duplicate. The control compound is ETV. See Table 2 for compound concentrations.
(§3) On days 3, 5 and 7, the medium was replaced with fresh medium containing compounds.
(§4) On the ninth day, the supernatant was collected, which was then detected by ELISA for levels of HBeAg and HbsAg, and by qPCR for level of HBV DNA. Meanwhile, detecting cell viability by CellTiter-Glo. Collecting cells for cryopreservation (for spare).
(§5) 2) Detecting the levels of HBeAg and HBsAg in cell culture supernatant by ELISA. The test was performed in accordance with the instructions of the kit, and was briefly described as follows:
(§6) Taking respective 50 μl of standard, sample and control compound, and adding to the detection plate, then adding 50 μl of enzyme conjugate to each well, incubating at 37° C. for 60 minutes, washing the plate with washing solution, blotting dry, then adding 50 μl of premixed luminescent substrate, and incubating at room temperature in the dark for 10 minutes, and finally measuring luminescence values by a microplate reader.
(§7) Inhibition rate of Hbe/sAg (%)=(1-HBe/sAg level of sample compound/HBe/sAg level of DMSO control group)×100%

HepG2-NTCP cells = assay: Cell viability assay by CellTiter-Glo; format: cell-based; conditions: different concentrations, FIG. 7
Procedure: as §4
3) Cell Viability Assay by CellTiter-Glo Cell
The cell viability was determined according to the instructions of the CellTiter-Glo kit. The assay is briefly described as follows: Collecting the cell culture supernatant, adding CellTiter-Glo (1:1 dilution of medium) to each well, incubating at room temperature for 10 minutes, and measuring luminescence values with a microplate reader.

AAV-HBV mouse models = assay: In vivo experiments in AAV-HBV mouse models: plasma HBV DNA, HBsAg, HBeAg; conditions: AAV-HBV mice, 60mpk by gavage once a day, 90-day period of administration
Procedure: Experimental method: AAV-HBV mouse models were administered by gavage, once a day; the compound group (G10 HD042, i.e., celecoxib): the dose of celecoxib was 60mpk; and the blank group (G1 vehicle control group): 10% DMSO+40% PEG400+5% Tween 80+45% Saline (V/V) solution.
During the 90-day period of administration, blood was collected on the 6th, 13th, 20th, 27th, 34th, 41st, 48th, 55th, 62nd, 69th, […], 83rd, and 90th days, respectively, and the plasma levels of HBV DNA, HBsAg, HBeAg and anti-HBs were tested with the results shown in FIGS. 4 to 5.

[2] = tested on: HBV DNA of HepG2-NTCP cells; assay: In vitro anti-HBV activity in HepG2-NTCP cells: HBV DNA in culture supernatant by qPCR; format: cell-based
Procedure: as §1, §2, §3, §4
1) Detecting the level of HBV DNA in cell culture supernatant by qPCR
According to the instructions of QIAamp 96 DNA Blood Kit, extracting DNA from cell culture supernatant. The level of HBV DNA was detected by qPCR with HBV-specific primers. PCR reaction: 95° C., 10 min; 95° C., 15 sec, 60° C., 1 min, 40 cycles.
Inhibition rate of HBV DNA (%)=(1-HBV copy number of sample compound group/HBV copy number of DMSO group)×100%

[3] = tested on: HBsAg of HepG2-NTCP cells; assay: In vitro anti-HBV activity in HepG2-NTCP cells: HBsAg in culture supernatant by ELISA; format: cell-based
Procedure: as §1, §2, §3, §4, §5, §6, §7

hepatitis B virus (HBV) = conditions: compared with TDF; cited from earlier work
[4] = compared with TDF; cited from earlier work
HBeAg and HBsAg = conditions: as reported in the literature; cited from earlier work
[5] = Hepatitis B virus, 216 h, read-out: HBeAg inhibition rate
[6] = repeated parallel experiments, FIG. 6
[7] = Hepatitis B virus, 216 h, read-out: HBsAg inhibition rate

For `Cc1ccc(-c2cc(C(F)(F)F)nn2-c2ccc(S(N)(=O)=O)cc2)cc1` [compound of formula 1, celecoxib], which inhibition at 1 µM [1, 5] is on record?
Its inhibition at 1 µM is 18%.

And the inhibition at 10 µM [1, 5]?
Its inhibition at 10 µM is 50.4%.

What about the inhibition at 20 µM [1, 5] of the same compound?
The inhibition at 20 µM was 78.1%.

And the “inhibitory effect on HBeAg, repeated cell experiments” value [1, 6]?
Its value is “significant dose-dependent manner”.

And the “cytotoxicity on HepG2-NTCP cells” value (HepG2-NTCP cells)?
Its value is “an effect on the virus rather than cytotoxicity”.

And the “reduction of plasma level of HBV DNA” value (AAV-HBV mouse models)?
The value was 0.72 Log 10 copy/mL.

And the “reduction of plasma level of HBeAg” value (AAV-HBV mouse models)?
Its value is 0.34 Log 10 PEIU/mL.

What about the “reduction of plasma level of HBsAg” value (AAV-HBV mouse models) of the same compound?
Its value is 0.76 Log 10 IU/mL.

And the inhibition at 1 µM ([2]; Hepatitis B virus, 216 h, 1 μM compound of formula 1, HepG2-NTCP cells, supernatant day 9, read-out: HBV DNA inhibition rate)?
Its inhibition at 1 µM is 7.59%.

What about the inhibition at 10 µM ([2]; Hepatitis B virus, 216 h, 10 μM compound of formula 1, HepG2-NTCP cells, supernatant day 9, read-out: HBV DNA inhibition rate) of the same compound?
Its inhibition at 10 µM is 49.2%.

And the inhibition at 20 µM ([2]; Hepatitis B virus, 216 h, 20 μM compound of formula 1, HepG2-NTCP cells, supernatant day 9, read-out: HBV DNA inhibition rate)?
Its inhibition at 20 µM is 73%.

What about the “inhibitory effect on HBV DNA, repeated cell experiments” value [2, 6] of the same compound?
The value was “significant dose-dependent manner”.

What about the inhibition at 1 µM [3, 7] of the same compound?
Its inhibition at 1 µM is 21.5%.

And the inhibition at 10 µM [3, 7]?
The inhibition at 10 µM was -7.65%.

And the inhibition at 20 µM [3, 7]?
Its inhibition at 20 µM is 46.1%.

What about the “inhibitory effect on HBsAg, repeated cell experiments” value [3, 6] of the same compound?
The value was “significant dose-dependent manner”.

Which results are given for `CC(C)OC(=O)[C@H](C)N[P@](=O)(CO[C@H](C)Cn1cnc2c(N)ncnc21)Oc1ccccc1` [Tenofovir alafenamide, Tenofovir Alafenamide]?
antiviral activity relative to tenofovir disoproxil TDF (hepatitis B virus (HBV)): 10 times; half-life relative to tenofovir disoproxil TDF [4]: 225 times; stability in plasma relative to tenofovir disoproxil TDF [4]: 200 times

What does the source list for `C=C1C(CO)C(O)CC1n1cnc2c(=O)nc(N)[nH]c21` [ETV, 2-amino-1,9-dihydro-9-[(1S,3R,4S)-4-hydroxy-3-(hydroxymethyl)-2-methylenecyclopentane]-6H-purin-6-one]?
effect on reducing HBeAg and HBsAg (HBeAg and HBsAg): little effect; inhibition at 0.0001 µM [1, 5]: -1.35%; inhibition at 0.0001 µM ([2]; Hepatitis B virus, 216 h, 0.1 nM ETV, HepG2-NTCP cells, supernatant day 9, read-out: HBV DNA inhibition rate): 44.7%; inhibition at 0.0001 µM [3, 7]: 1.22%

Source: patent US20230158000A1, “PHARMACEUTICAL COMPOSITION FOR TREATING OR PREVENTING VIRAL HEPATITIS AND THE USE THEREOF” (Holy Haid Lab Corp, priority 2020, published 2023)
